Each block holds one substance with its values, some of them ahead of it.
Columns and labels:
[1] = test system: glucose-induced vascular dysfunction; details: cited from earlier work; for prevention of vascular dysfunction (active / inactive) / potency on vascular dysfunction relative to native C-peptide: skin chamber granulation tissue model in rats; for normalization (%) of 30 mM glucose-induced vascular dysfunction: rats, FIG. 1 adapted from Ido et al. 1997
[2] = test system: cell membrane-bound C-peptide; details: cited from earlier work
[3] = test system: MAP kinase signaling pathways; details: cited from earlier work
[4] = test system: human renal tubular cells; details: cited from earlier work
[5] = target: human elastin receptor (elastin binding protein, EBP) on CD4+ immune cells (human)
Na^+K^+ATPase = details: rat renal tubule cells; cited from earlier work
CD4+ immune cells = assay: classical Boyden chamber experiment, migration of CD4+ immune cells; type: cell-based; details: V14-peptide at 1.3 microM; C-peptide at 10 nM
Description: Moreover, additional examples of fragments of the human C-peptide are provided herein and ^14, all bearing a mid-portion hexapeptide 12 SEQ ID NO:34 (LGGGPG) 17, that all prevented vascular dysfunction whereas other human C-peptide fragments, wherein the hexapeptide mid-portion was disrupted, were found not active. […] Human C-peptide and its xGxxPG containing fragments may thus be considered an unexpected species of the genus of a larger class of peptides: elastin peptides capable of elastin receptor activation, whereby excess C-peptide may be meddling with elastin receptor mediated tissue repair, modulating chronic-low grade inflammation, IR and hypertension. […] This provides a substantial jump in our understanding of the causes of metabolic syndrome and other lifestyle- or age-related conditions of IR. […] It is provided to do these tests with synthetic human C-peptide variants or fragments, provided with or without the sequence GxxP, to study binding, including classical elastin receptor antagonist V14 peptide to study inhibition of binding. Similarly, one can do the C-peptide tests in a skin chamber granulation tissue model of vascular function ^14, or test synthetic, inducibly or constitutively expressed C-peptide in established models of atherosclerosis, Neu-1 mediated IR or PPCA mediated hypertension ^7-9.

bioactivity of C-peptide = assay: preliminary in-vitro inhibition of bioactivity of C-peptide; details: preliminary in-vitro results

Substance: EAENPQAGAVELGGGLGGLQALALEGPPQ [pig C-peptide]
prevention of vascular dysfunction (active / inactive) [1]: inactive

Substance: D--1EAEDLQVGQVELGGGPGAGSLQPLALEGSLQ31 [enantio C-peptide]
potency on vascular dysfunction relative to native C-peptide [1]: equipotent to native C-peptide

Substance: DLQVGQVELGGGPGAGSLQPLALEGSLQ [SEQ ID NO:10]
normalization (%) of 30 mM glucose-induced vascular dysfunction [1]: significant normalization

Substance: LGGGPGAGSLQPLALEGSLQ [SEQ ID NO:14]
normalization (%) of 30 mM glucose-induced vascular dysfunction [1]: significant normalization

Substance: EGSLQ [SEQ ID NO:6]
displacement of cell membrane-bound C-peptide [2]: displaces
MAP kinase signaling pathways [3]: stimulates
intracellular Ca2+ [4]: may induce intracellular Ca2+ increases

Substance: VGQVELGGGPGAGSLQPL [SEQ ID NO:175]
normalization (%) of 30 mM glucose-induced vascular dysfunction [1]: significant normalization

Substance: DLQVGQVELGGGPGAGSLQPL [SEQ ID NO:20]
normalization (%) of 30 mM glucose-induced vascular dysfunction [1]: significant normalization

Substance: EVEDPQVPQLELGGGPEAGDLQTLALEVARQ [Rat C-peptide]
prevention of vascular dysfunction (active / inactive) [1]: active

Substance: GQVELGGGPGAGSLQPLALEGSLQ [SEQ ID NO:13]
normalization (%) of 30 mM glucose-induced vascular dysfunction [1]: significant normalization

migration of CD4+ immune cells in a classical Boyden chamber experiment (% increase of migration) [5]: 100
Substance: human C-peptide

Substance: GGGPGAG [SEQ ID NO:8]
normalization (%) of 30 mM glucose-induced vascular dysfunction [1]: normalize

Substance: EVARQ [SEQ ID NO:7]
intracellular Ca2+ [4]: may induce intracellular Ca2+ increases

Substance: QLSGELALPQLSGAGPGGGLEVQGVQLDEAE (retro C-peptide)
potency on vascular dysfunction relative to native C-peptide [1]: equipotent to native C-peptide

Substance: EAEDLQVGQVELGGGPGAGSLQPL (EAEDLQVGQVELGGGPGAGSLQPLAL) [SEQ ID NO:17]
normalization (%) of 30 mM glucose-induced vascular dysfunction [1]: significant normalization

Substance: ELGGGPGAGSLQPL [SEQ ID NO:176]
normalization (%) of 30 mM glucose-induced vascular dysfunction [1]: significant normalization

Substance: ELGGGPGAG [SEQ ID NO:9]
Na^+K^+ATPase activity (Na^+K^+ATPase): stimulate

Substance: VVGSPSAQDEASPL [V14-peptide]
C-peptide-induced CD4-migration inhibited, antagonized and diminished (CD4+ immune cells): > 50%
inhibition of bioactivity of C-peptide (bioactivity of C-peptide): inhibition
